Patent publication US8278326B2, “Inhibitors of protein phosphatase-1 and uses thereof” (Howard University, priority 2008, dated 2012)

B1: Tat: HIV-1 Tat protein that binds to the RVxF pocket of PP1 (protein, UniProt P04608 1-86, looked up)
Protein Tat: MEPVDPRLEPWKHPGSQPKTACTNCYCKKCCFHCQVCFITKALGISYGRKKRRQRRRAHQNSQTHQASLSKQPTSQPRGDPTGPKE

Assays:
[1] = test system: Tat-induced HIV-1 transcription; assay: Inhibition of Tat-induced HIV-1 transcription in 293T cells transfected with Tat-expressing vector, HIV-1 LTR-LacZ reporter and CMV-EGFP reporter; type: cell-based; details: for inhibition of Tat-induced HIV-1 transcription in 293T cells: in words
Experimental: (§1) The compounds from Table 2 were further evaluated using 293T cells transfected with Tat- and HIV-1 LTR-LacZ. […] Compounds 1H4, 3C8, and 1G3 were further evaluated in 293T cells transfected with Tat-expressing vector, HIV-1 LTR-LacZ reporter and CMV-EGFP reporter. Inhibitory properties of these compounds were evaluated using 293T cells transfected with Tat-expressing vector, HIV-1 LTR-LacZ reporter and CMV-EGFP reporter (Ammosova et al., 2005a). 293T cells were transfected with lipofectamine and then treated with each of the selected compounds for 18 hours. Then the cells were lysed and GFP and β-galactosidase activity was determined as we previously described (Ammosova et al., 2005a). Compound 1H4 was the most inhibitory with IC50=5 μM (FIG. 1B). […] Neither of the compounds was cytotoxic as determined by LDH assay (not shown).

[2] = test system: HIV-1 transcription; assay: Inhibition of transcription, FIG. 1A (293T cells transfected with Tat- and HIV-1 LTR-LacZ); type: cell-based
Experimental: as §1

[3] = test system: 293T cells; assay: Measurements of cytotoxicity, FIG. 1A; type: cell-based
Experimental: as §1

[4] = test system: recombinant pNL4-3 HIV-1; assay: HIV-1 replication in MT4 cells infected with recombinant pNL4-3 HIV-1; type: cell-based; details: for inhibition of HIV-1 replication: MT4 cells, 1H4 at 10 μM or 25 μM (FIG. 2)
Experimental: HIV-1 replication is inhibited by a small molecular mimetic of QVCF peptide. The 1H4 compound was evaluated to determine whether it could inhibit HIV-1 replication. MT4 cells were infected with recombinant pNL4-3 HIV-1 and treated with different concentrations of 1H4 compound and as a control 1G3 compound.

[5] = test system: HIV-1 IIIB; assay: Inhibition of HIV-1 replication, IIIB (Table 6); type: cell-based; details: for inhibition of HIV-1 replication: Table 6 (IIIB, Q148R, N155H); for IC50: read-out: IIIB, IC50, HIV-1 replication
Experimental: (§2) Compounds 1H4, 1E07, B03 and as a control 1G3 were analyzed for inhibition of HIV-1 replication and results are shown in Table 6.

[6] = test system: HIV-1 Q148R; assay: Inhibition of HIV-1 replication, Q148R (Table 6); type: cell-based; details: read-out: Q148R, IC50
Experimental: as §2

[7] = test system: HIV-1 N155H; assay: Inhibition of HIV-1 replication, N155H (Table 6); type: cell-based; details: read-out: N155H, IC50
Experimental: as §2

[8] = test system: PP1; assay: Tat-PP1 competition assay (PP1 activity); type: biochemical; details: for effect on Tat-mediated inhibition of PP1: 50 μM compound, 4 nM PP1, glycylglycine buffer (FIG. 3A)
Experimental: (§3) Competition assays were performed with 4 nM PP1 in glycylglycine buffer. […] To analyze if 1H4 compound has an effect on the activity of CDK2 we incubated recombinant CDK2/cyclin E with histone H1 without or with the addition of increasing concentrations of 1H4.

[9] = biological target: recombinant CDK2/cyclin E (Homo sapiens, UniProt P24941); assay: CDK2/cyclin E activity with histone H1; type: biochemical; details: increasing concentrations; histone H1 substrate
Experimental: as §3

[10] = test system: HIV-1 transcription; assay: Inhibition of Tat-induced HIV-1 transcription in Ad-Tat-infected CEM GFP reporter cells; type: cell-based; details: for inhibition of HIV-1 transcription in CEM cells: CEM T-cells, 1H4-based library, in words
Experimental: (§4) Identification of the inhibitory compounds: The library was analyzed for the inhibition of HIV-1 transcription using reporter CEM GFP cells (courtesy of AIDS Reagents Program, NIH) that were infected with adenovirus expressing HIV-1 Tat activator protein (Ad-Tat) as previously described (Nekhai et al., 2007). Infection of CEM-GFP cells with Adeno-Tat induced HIV-1 transcription that was measured as gain of GFP fluorescence (Nekhai et al., 2007). Compounds were added at 25 μM concentration to the Ad-Tat-infected CEM-GFP cells and incubated for 24-48 hours. Cytotoxicity was evaluated by the uptake of propidium iodide (PI).

[11] = test system: CEM GFP cells; assay: Cytotoxicity in CEM cells by uptake of propidium iodide; type: cell-based; details: 1H4-based library
Experimental: as §4
Identification of addition inhibitors. The 1H4 compound was used to create a second library of compounds that would have similar backbone as 1H4. This second library contained 143 compounds. These compounds were analyzed for the inhibition of HIV-1 transcription and toxicity in CEM T-cells and 293T cells similar as described above for the analysis of the first library.

Molecule	inhibition of HIV-1 replication [5]	IC50 [5] [µM]	IC50 [6] [µM]	IC50 [7] [µM]	inhibition of Tat-induced HIV-1 transcription in 293T cells [1]	also measured
COc1ccc(C(CNC(=O)CN2CCc3ccccc3C2)c2c[nH]c3ccccc23)cc1 (centres unmarked) [1H4]	inhibited HIV-1 replication	9.4	4.7	8	–	IC50 ([1]; Human immunodeficiency virus 1, HEK-293T, read-out: Transcription inh. in 293T cells (IC-50)): 5 µM; inhibition of HIV-1 transcription (FIG. 1A) [2]: inhibited HIV-1 transcription; cytotoxicity (FIG. 1A) [3]: not toxic; inhibition of HIV-1 replication [4]: inhibited HIV-1 replication; effect on Tat-mediated inhibition of PP1 [8]: relieved Tat-mediated inhibition of PP1; effect on the activity of CDK2 [9]: did not have a significant effect
COc1ccc(C(CNC(=O)CN2CCc3ccccc3C2)c2c[nH]c3ccccc23)cc1 (centres unmarked) [B03]	not inhibitory	–	–	–	inhibitory	–
COc1ccc(C(CNC(=O)CN2CCc3ccccc3C2)c2c[nH]c3ccccc23)cc1 (centres unmarked) [1E07]	inhibited HIV-1 replication	2.5	1.5	3.2	inhibited HIV-1 transcription	inhibition of HIV-1 transcription in CEM cells [10]: inhibited HIV-1 transcription; toxicity in the propidium iodide uptake assay [11]: not toxic
COc1ccc(C(CNC(=O)CN2CCc3ccccc3C2)c2c[nH]c3ccccc23)cc1 (centres unmarked) [2F02]	–	–	–	–	inhibited HIV-1 transcription	inhibition of HIV-1 transcription in CEM cells [10]: inhibited HIV-1 transcription
COc1ccc(C(CNC(=O)CN2CCc3ccccc3C2)c2c[nH]c3ccccc23)cc1 (centres unmarked) [E06]	–	–	–	–	inhibitory	–
COc1ccc(C(CNC(=O)CN2CCc3ccccc3C2)c2c[nH]c3ccccc23)cc1 (centres unmarked) [1G3, reference compound]	–	37	42	59	–	inhibition of HIV-1 transcription (FIG. 1A) [2]: neither inhibitory nor toxic; cytotoxicity (FIG. 1A) [3]: neither inhibitory nor toxic; induction of HIV-1 replication ([4]; MT4 cells (FIG. 2)): about 2 fold; inhibition of HIV-1 replication [4]: did not inhibit HIV-1 replication; effect on Tat-mediated inhibition of PP1 [8]: did not affect Tat-mediated inhibition of PP1
CC(OC(=O)c1c2c(nc3ccccc13)/C(=C/c1ccc(Cl)cc1)CC2)C(=O)NC(N)=O (centres unmarked)	–	–	–	–	–	inhibition of HIV-1 transcription ([10]; cell line not stated, appeared to increase the rate of transcription instead): ineffective for inhibition of HIV-1 transcription
B1	–	–	–	–	–	inhibition of PP1 ([8]; excess of Tat protein, 4 nM PP1 (FIG. 3A)): inhibited PP1
